The source of these data is ChEMBL document CHEMBL1133258, “Synthesis and evaluation of quinoxalinones as HIV-1 reverse transcriptase inhibitors” (Bioorg Med Chem Lett, 2000).

The target in experiment [1] is Human immunodeficiency virus type 1 reverse transcriptase (Human immunodeficiency virus 1) (UniProt Q72547).
Description: Inhibitory concentration for 90% inhibition of HIV-1 reverse transcriptase, whole cell based antiviral assay
The target of experiment [2] is Human immunodeficiency virus type 1 reverse transcriptase (Human immunodeficiency virus 1, UniProt Q72547). Put plainly: Inhibitory concentration for 50% inhibition of HIV-1 reverse transcriptase.

Structures are written as SMILES. A value given as a limit tells only on which side of the number the result lay.

`C=C(C)OC(=O)N1c2ccccc2NC(=O)C1(C#CC1CC1)C(F)(F)F` (stereo unspecified): in experiment [1], the 90% effect concentration (IC90) – broadly, the concentration needed for an effect of 90% – was determined as 11 nM. Further, the IC50 (commonly the concentration needed to halve the response being measured) in experiment [2] stood at 169 nM. With `CC(C)OC(=O)N1c2ccccc2NC(=O)C1(C#CC1CC1)C(F)(F)F` (stereo unspecified), the concentration for an effect of 90% (IC90) in experiment [1] was determined as 15 nM. This compound also gave an IC50 in experiment [2] of 108 nM. In the case of `CCOC(=O)N1c2ccccc2NC(=O)C1(C#CC1CC1)C(F)(F)F` (stereo in doubt) [listing 1 of 2 here], in experiment [1], the 90% effect level (IC90) was put at 4.8 nM. Compound `CCOC(=O)N1c2ccccc2NC(=O)C1(C#CC1CC1)C(F)(F)F` (stereo in doubt; 6m) [listing 1 of 2 here] yielded an IC90 in experiment [1] of 9 nM. For the compound `CCOC(=O)N1c2ccccc2NC(=O)C1(C#CC1CC1)C(F)(F)F` (stereo in doubt) [listing 2 of 2 here], the IC50 in experiment [2] was 45 nM. Take `O=C1Nc2ccc(Cl)cc2N(CC2CC2)C1(C#CC1CC1)C(F)(F)F` (stereo unspecified): the IC90 in experiment [1] came out at 27 nM. The same compound yielded an IC50 in experiment [2] of 329 nM. In the same order, the values of `CCOC(=O)N1c2cc(Cl)ccc2NC(=O)C1(C#CC1CC1)C(F)(F)F` (stereo unspecified) are 11 nM and 127 nM. For `CCCS(=O)(=O)N1c2ccccc2NC(=O)C1(C#CC1CC1)C(F)(F)F` (stereo unspecified), in that order: > 1000 nM and > 5000 nM.

Consider `C=CCOC(=O)N1c2ccccc2NC(=O)C1(C#CC1CC1)C(F)(F)F` (stereo unspecified), for which the IC90 in experiment [1] came out at 30 nM. For the same compound, in experiment [2], the IC50 is 147 nM. `O=C1Nc2ccccc2N(CC2CC2)C1(C#CC1CC1)C(F)(F)F` (stereo in doubt; 6a) [listing 1 of 2 here] came in with a half-maximal inhibitory concentration (IC50) in experiment [2] of 253 nM. In experiment [1], `C#CCN1c2ccccc2NC(=O)C1(C#CC1CC1)C(F)(F)F` (stereo unspecified) showed an IC90 of 53 nM. In experiment [2], 1810 nM corresponded to half-maximal inhibition (IC50). For `C=C(C)OC(=O)N1c2cc(Cl)ccc2NC(=O)C1(C#CC1CC1)C(F)(F)F` (stereo unspecified), in that order: 15 nM and 315 nM. For `O=C1Nc2ccccc2N(CC2CC2)C1(C#CC1CC1)C(F)(F)F` (stereo in doubt; 6z) [listing 1 of 2 here], the 90% effect concentration (IC90) in experiment [1] is 11 nM.

In experiment [1], `O=C1Nc2ccccc2N(CCC2CC2)C1(C#CC1CC1)C(F)(F)F` (stereo unspecified) yielded a concentration for an effect of 90% (IC90) of 32 nM. Moreover, 340 nM corresponded to half-maximal inhibition in experiment [2] (IC50). For `C=CCN1c2cc(Cl)ccc2NC(=O)C1(C#CC1CC1)C(F)(F)F` (stereo unspecified), in that order: 85 nM and 650 nM. In the same order, the values of `CCS(=O)(=O)N1c2ccccc2NC(=O)C1(C#CC1CC1)C(F)(F)F` (stereo unspecified) are > 1000 nM and > 5000 nM.

In experiment [1], `O=C1Nc2ccc(F)cc2N(CC2CC2)C1(C#CC1CC1)C(F)(F)F` (stereo unspecified) came in with a concentration for an effect of 90% (IC90) of 23 nM. The compound further registered an IC50 in experiment [2] of 263 nM. `C=C(C)OC(=O)N1c2cc(F)ccc2NC(=O)C1(C#CC1CC1)C(F)(F)F` (stereo unspecified) yielded an IC90 in experiment [1] of 8 nM. In addition, it took 183 nM to reach half-maximal inhibition in experiment [2] (IC50). In the same order, the values of `CC(C)COC(=O)N1c2ccccc2NC(=O)C1(C#CC1CC1)C(F)(F)F` (stereo unspecified) are 158 nM and 1140 nM. In the same order, the values of `C=CCN1c2cc(OC)ccc2NC(=O)C1(C#CC1CC1)C(F)(F)F` (stereo unspecified) are 29 nM and 123 nM.

Regarding `COC(=O)N1c2ccccc2NC(=O)C1(C#CC1CC1)C(F)(F)F` (stereo unspecified), the 90% effect level in experiment [1] (IC90) was put at 44 nM. Further, in experiment [2], the IC50 is 504 nM. For `CC[C@H]1C(=O)Nc2ccc(F)cc2N1C(=O)OC(C)C` [OPAVIRALINE], in that order: 11 nM and 179 nM. In the same order, the values of `CC(C)OC(=O)N1c2cc(F)ccc2NC(=O)C1(C#CC1CC1)C(F)(F)F` (stereo unspecified) are 9 nM and 130 nM.

In the case of `O=C(c1ccccc1)N1c2ccccc2NC(=O)C1(C#CC1CC1)C(F)(F)F` (stereo unspecified), in experiment [1], the IC90 was > 1000 nM. The 50% inhibitory concentration (IC50) in experiment [2] was > 5000 nM. Consider `O=C1Nc2ccccc2N(CC2CC2)C1(C#CC1CC1)C(F)(F)F` (stereo in doubt; 6a) [listing 2 of 2 here], for which it took 17 nM to reach the 90% level in experiment [1] (IC90). Consider `CCCCOC(=O)N1c2ccccc2NC(=O)C1(C#CC1CC1)C(F)(F)F` (stereo unspecified), for which the 90% effect concentration (IC90) in experiment [1] is 105 nM. Also, the half-maximal inhibitory concentration (IC50) in experiment [2] stood at 672 nM.

Compound `C=CCN1c2ccccc2NC(=O)C1(C#CC1CC1)C(F)(F)F` (stereo unspecified) gave an IC90 in experiment [1] of 22 nM. In experiment [2], this compound had an IC50 of 601 nM. In the same order, the values of `CC(C)S(=O)(=O)N1c2ccccc2NC(=O)C1(C#CC1CC1)C(F)(F)F` (stereo unspecified) are > 1000 nM and > 5000 nM. On to `CCOC(=O)N1c2cc(F)ccc2NC(=O)C1(C#CC1CC1)C(F)(F)F` (stereo unspecified), for which, in experiment [1], the 90% effect level (IC90) was put at 8 nM. Half-maximal inhibition in experiment [2] (IC50) required 121 nM. `O=C1Nc2ccccc2N(CC2CC2)C1(C#CC1CC1)C(F)(F)F` (stereo in doubt; 6z) [listing 2 of 2 here] registered an IC50 in experiment [2] of 127 nM.

Regarding `CC(C)CN1c2cc(Cl)ccc2NC(=O)C1(C#CC1CC1)C(F)(F)F` (stereo unspecified), it took 52 nM to reach the 90% level in experiment [1] (IC90). The compound also gave an IC50 in experiment [2] of 404 nM.

Compound `CC(C)C(I)N1c2ccccc2NC(=O)C1(C#CC1CC1)C(F)(F)F` (stereo unspecified) displayed a 90% effect concentration (IC90) in experiment [1] of 19 nM. In addition, in experiment [2], the IC50 came to 160 nM.

For the compound `O=C1Nc2ccccc2N(Cc2ccccc2)C1(C#CC1CC1)C(F)(F)F` (stereo unspecified), the concentration for an effect of 90% (IC90) in experiment [1] is 21 nM. The half-maximal inhibitory concentration (IC50) in experiment [2] amounted to 1820 nM. On to `CCOC(=O)N1c2ccccc2NC(=O)C1(C#CC1CC1)C(F)(F)F` (stereo in doubt; 6m) [listing 2 of 2 here], for which, in experiment [2], 118 nM corresponded to half-maximal inhibition (IC50). With `CC(C)OC(=O)N1c2cc(Cl)ccc2NC(=O)C1(C#CC1CC1)C(F)(F)F` (stereo unspecified), the IC90 in experiment [1] was determined as 19 nM. In experiment [2], the IC50 turned out to be 160 nM. Compound `COc1ccc2c(c1)N(CC1CC1)C(C#CC1CC1)(C(F)(F)F)C(=O)N2` (stereo unspecified) displayed a concentration for an effect of 90% (IC90) in experiment [1] of 19 nM. This compound registered an IC50 in experiment [2] of 109 nM.

As for `C=CCN1c2cc(F)ccc2NC(=O)C1(C#CC1CC1)C(F)(F)F` (stereo unspecified), in experiment [1], the concentration for an effect of 90% (IC90) was 21 nM. In addition, the IC50 in experiment [2] stood at 124 nM.
